Test results published in patent publication US5726159A, “Antithrombotic agents” (Eli Lilly and Company, priority 1995, dated 1998).
Counter-ions that a name gives are not always drawn.

Tests used:
Assay type in all cases: biochemical
Settings in all cases: concentration required to double the clotting time
Human plasma [1] = assay: Human plasma anticoagulation, thrombin time (TT)
Procedure: (§1) Dog plasma and rat plasma is obtained from conscious mixed-breed hounds (either sex, Hazelton-LRE, Kalamazoo, Mich., U.S.A.) or from anesthetized male Sprague-Dawley rats (Harlan Sprague-Dawley, Inc., Indianapolis, Ind., U.S.A.) by venipuncture into 3.8 percent citrate. Fibrinogen is prepared from in-date ACD human blood as the fraction I-2 according to previous procedures and specifications. […] Human fibrinogen is also purchased as 98 percent pure/plasmin free from American Diagnostica, Greenwich, Conn. Coagulation reagents ACTIN, Thromboplastin, and Human plasma are from Baxter Healthcare Corp., Dade Division, Miami, Fla. Bovine thrombin from Parke-Davis ([…], Mich.) is used for coagulation assays in plasma.
(§2) Coagulation assay procedures are as previously described. […] A CoAScreener coagulation instrument (American LABor, Inc.) is used for all coagulation assay measurements. The prothrombin time (PT) is measured by adding 0.05 mL saline and 0.05 mL Thromboplastin-C reagent to 0.05 mL test plasma. The activated partial thromboplastin time (APTT) is measured by incubation of 0.05 mL test plasma with 0.05 mL Actin reagent for 120 seconds followed by 0.05 mL CaCl2 (0.02M). The thrombin time (TT) is measured by adding 0.05 mL saline and 0.05 mL thrombin (10 NIH units/mL) to 0.05 mL test plasma. The compounds of Formula I are added to human or animal plasma over a wide range of concentrations to determine prolongation effects on the APTT, PT, and TT assays. Linear extrapolations are performed to estimate the concentrations required to double the clotting time for each assay.

Human plasma [2] = assay: Human plasma anticoagulation, activated partial thromboplastin time (APTT)
Procedure: as §1, §2

Human plasma [3] = assay: Human plasma anticoagulation, prothrombin time (PT)
Procedure: as §1, §2

Compound | 2x Clotting time TT (Human plasma [1]) | 2x Clotting time APTT (Human plasma [2]) | 2x Clotting time PT (Human plasma [3])
CCC(CC)C(=O)N[C@@H](CCC(=O)O)C(=O)N1CCC[C@H]1C(=O)NCc1ccc(C(=N)N)cc1 [Example 90, (C2 H5)2 CHCO-Glu-Pro-p-NHCH2 C6 H4 C(NH)NH2.HCl] | 330 ng/mL | 14,500 ng/mL | 14,600 ng/mL
N=C(N)c1cccc(CNC(=O)[C@@H]2CCCN2C(=O)[C@H](N)Cc2ccccc2)c1 [Example 16, D-Phe-Pro-m-NHCH2 C6 H4 C(NH)NH2.0.75HCl] | 650 ng/mL | 8,600 ng/mL | 8,500 ng/mL
N=C(N)NC/C=C/CNC(=O)[C@@H]1CCCN1C(=O)[C@H](N)Cc1ccccc1 (relative stereo) [Example 8, D-Phe-Pro-NHCH2 -trans-CH=CHCH2 NHC(NH)NH2.HCl] | 130 ng/mL |  | 
1-Piq-Pro-p-NHCH2 C6 H4 C(NH)NH2.2HCl [Example 18] | 7 ng/mL | 79 ng/mL | 170 ng/mL
N=C(N)Nc1cccc(CCNC(=O)[C@@H]2CCCN2C(=O)[C@@H]2NCC[C@@H]3CCCC[C@@H]32)c1 [Example 41, D-1-Piq-Pro-m-NHCH2 CH2 C6 H4 NHC(NH)NH2.2HCl] | 82,200 ng/mL | > 91,000 ng/mL | > 91,000 ng/mL
Nc1ccc(CNC(=O)[C@@H]2CCCN2C(=O)[C@@H](CC2CCCCC2)NCC(=O)O)cn1 [Example 74, HO2 CCH2 -D-Cha-Pro-5-NHCH2 -2-aminopyridine.HCl] | 20 ng/mL | 420 ng/mL | 350 ng/mL
N=C(N)Nc1cccc(CNC(=O)[C@@H]2CCCN2C(=O)[C@@H]2NCC[C@@H]3CCCC[C@@H]32)c1 [Example 40, D-1-Piq-Pro-m-NHCH2 C6 H4 NHC(NH)NH2.2HCl] | 35,100 ng/mL | > 91,000 ng/mL | > 91,000 ng/mL
N=C(N)c1cc(F)c(CNC(=O)[C@@H]2CCCN2C(=O)[C@@H](CC2CCCCC2)NCC(=O)O)c(F)c1 [Example 72, HO2 CCH2 -D-Cha-Pro-4-NHCH2 -3,5-F2 -benzamidine.HCl] | 1 ng/mL | 160 ng/mL | 160 ng/mL
CCOC(=O)N[C@H](Cc1ccccc1)C(=O)N1CCC[C@H]1C(=O)NCCCCNC(=N)N [Example 3, EtOCO-D-Phe-Pro-Agm.HCl] | 590 ng/mL |  | 
O=C(O)CN[C@H](CC1CCCCC1)C(=O)N1CCC[C@H]1C(=O)NCCC1=CCNCC1 [Example 59, HO2 CCH2 -D-Cha-Pro-4-NHCH2 CH2 -3,4-dehydro-piperidine.HCl] | 420 ng/mL | 5,500 ng/mL | 7,000 ng/mL
CCS(=O)(=O)N[C@H](CC1CCCCC1)C(=O)N1CCC[C@H]1C(=O)NCCCCNC(=N)N [Example 2, EtSO2 -D-Cha-Pro-Agm.HCl] | 170 ng/mL |  | 
CCS(=O)(=O)N[C@H](Cc1ccccc1)C(=O)N1CCC[C@H]1C(=O)NCCc1cccc(C(=N)N)c1 [Example 27, EtSO2 -D-Phe-Pro-m-NHCH2 CH2 -C6 H4 C(=NH)NH2.HCl] | 1,940 ng/mL | 27,800 ng/mL | 27,000 ng/mL
Nc1ccc(CNC(=O)[C@@H]2CCCN2C(=O)[C@@H](CC2CCCCC2)NCC(=O)O)c(F)c1 [Example 64, HO2 CCH2 -D-Cha-Pro-4-NHCH2 -3-F-C6 H3 NH2.HCl] | 23 ng/mL | 900 ng/mL | 650 ng/mL
N=C(N)c1cccc(CCCNC(=O)[C@@H]2CCCN2C(=O)[C@@H]2NCC[C@@H]3CCCC[C@@H]32)c1 [Example 33, 1-Piq-Pro-m-NHCH2 CH2 CH2 -C6 H4 C(=NH)NH2.HCl] | 18,900 ng/mL | 59,300 ng/mL | 70,900 ng/mL
N=C(N)Nc1ccc(CCNC(=O)[C@@H]2CCCN2C(=O)[C@@H]2NCC[C@@H]3CCCC[C@@H]32)cc1 [Example 39, D-1-Piq-Pro-p-NHCH2 CH2 C6 H4 NHC(NH)NH2.2HCl] | 5,300 ng/mL | 69,200 ng/mL | 78,600 ng/mL
Nc1ccc(CNC(=O)[C@@H]2CCCN2C(=O)[C@H](N)Cc2ccccc2)cc1 [Example 13, D-Phe-Pro-p-NHCH2 C6 H4 NH2.HCl] | 660 ng/mL |  | 
N=C(N)NCCCCCCNC(=O)[C@@H]1CCCN1C(=O)[C@H](N)Cc1ccccc1 [Example 5, D-Phe-Pro-NH(CH2)6 NHC(NH)NH2.HCl] | 30,000 ng/mL |  | 
NCc1ccc(CNC(=O)[C@@H]2CCCN2C(=O)[C@H](N)Cc2ccccc2)cc1 [Example 10, D-Phe-Pro-p-NHCH2 C6 H4 CH2 NH2.HCl] | 420 ng/mL |  | 
Nc1ccc(CCNC(=O)[C@@H]2CCCN2C(=O)[C@@H](CC2CCCCC2)NCC(=O)O)cc1 [Example 63, HO2 CCH2 -D-Cha-Pro-4-NHCH2 CH2 C6 H4 NH2.HCl] | 680 ng/mL |  | 
Nc1ccc(CCNC(=O)[C@@H]2CCCN2C(=O)[C@H](N)Cc2ccccc2)cc1 [Example 14, D-Phe-Pro-p-NHCH2 CH2 C6 H4 NH2.HCl] | 21,000 ng/mL |  | 
Nc1ccc(CNC(=O)[C@@H]2CCCN2C(=O)[C@@H](CC2CCCCC2)NCC(=O)O)cc1 [Example 62, HO2 CCH2 -D-Cha-Pro-4-NHCH2 C6 H4 NH2.HCl] | 54 ng/mL |  | 
NCc1cccc(CNC(=O)[C@@H]2CCCN2C(=O)[C@H](N)Cc2ccccc2)c1 [Example 11, D-Phe-Pro-m-NHCH2 C6 H4 CH2 NH2.HCl] | 8,800 ng/mL |  | 
N=C(N)NCCCNC(=O)[C@@H]1CCCN1C(=O)[C@H](N)Cc1ccccc1 [Example 7, D-Phe-Pro-NH(CH2)3 NHC(NH)NH2.HCl] | 490 ng/mL |  | 
N=C(N)NCc1ccc(CNC(=O)[C@@H]2CCCN2C(=O)[C@H](N)Cc2ccccc2)cc1 [Example 9, D-Phe-Pro-p-NHCH2 -C6 H4 CH2 NHC(NH)NH2.2TFA] | > 91,000 ng/mL |  | 
D-Phe-Pro-p-NHCH2 C6 H4 C(NH)NH2.HCl [Example 15] | 9 ng/mL | 89 ng/mL | 
NC[C@H]1CC[C@H](CNC(=O)[C@@H]2CCCN2C(=O)[C@H](N)Cc2ccccc2)CC1 (relative stereo) [Example 12, D-Phe-Pro-NHCH2 -trans-4-(aminomethyl)cyclohexane.HCl] | 1,700 ng/mL |  | 
